# Measurements taken from ChEMBL document CHEMBL3044837, “Synthesis and pharmacological investigation of novel 2-substituted-3-carboxamido-4H-pyrimidobenzothiazole derivatives as a new class of H1-antihistaminic agent” (Med Chem Res, 2013).
# System: Mus musculus
# Assay: Sedative activity in Mus musculus Swiss albino (mouse) at 10 mg/kg, ip after 1 hr relative to control
# Type: organism-based
# Set-up: dose 10 mg/kg, route intraperitoneal
# Conditions: in vivo
row,Compound,Activity [%]
1,NC(=O)c1c(N2CCCCC2)nc2sc3cc(Cl)ccc3n2c1=O,20.51
2,NC(=O)c1c(N2CCCC2)nc2sc3ccccc3n2c1=O,33.33
3,CN1CCN(c2nc3sc4ccccc4n3c(=O)c2C(N)=O)CC1,35.21
4,NC(=O)c1c(N2CCOCC2)nc2sc3cc(Cl)ccc3n2c1=O,23.17
5,CN1CCN(c2nc3sc4cc(Cl)ccc4n3c(=O)c2C(N)=O)CC1,32.92
6,NC(=O)c1c(N2CCN(CCO)CC2)nc2sc3ccccc3n2c1=O,36.47
7,CCN1CCN(c2nc3sc4ccccc4n3c(=O)c2C(N)=O)CC1,26.43
8,NC(=O)c1c(N2CCCC2)nc2sc3cc(Cl)ccc3n2c1=O,38.27
9,CN(C)CCNc1nc2sc3cc(Cl)ccc3n2c(=O)c1C(N)=O,25.97
10,CN(C)CCC(c1ccc(Cl)cc1)c1ccccn1.O=C(O)/C=C\C(=O)O (stereo not given) [CHLORPHENIRAMINE MALEATE],69.01
11,NC(=O)c1c(N2CCN(CCO)CC2)nc2sc3cc(Cl)ccc3n2c1=O,30.37
12,CCN1CCN(c2nc3sc4cc(Cl)ccc4n3c(=O)c2C(N)=O)CC1,22.66
13,NC(=O)c1c(N2CCCCC2)nc2sc3ccccc3n2c1=O,23.61
14,NC(=O)c1c(N2CCOCC2)nc2sc3ccccc3n2c1=O,24.32
15,CN(C)CCNc1nc2sc3ccccc3n2c(=O)c1C(N)=O,36.25
